The results in this text go back to publication PMC9027599, “Secondary Metabolites in Basil, Bio-Insecticide, Inhibition Effect, and In Silico Molecular Docking against Proteolytic Enzymes of the Red Palm Weevil (Rhynchophorus ferrugineus)” (Plants, 2022).

In one experiment the test system is R. ferrugineus adults. The experiment is described as follows: whole plant or invertebrate. Particulars: Rhynchophorus ferrugineus. As to the method: The R. ferrugineus adult and larvae were acquired from an insect breeding lab at King Faisal University’s Date Palm Research Center of Excellence and grown utilizing sugarcane stem long pieces. The extracts activity against larvae was determined by using topical application method with storing larvae at 4–5 °C for 5 min. Previous serial concentrations of extract (10 µL) were applied to the dorsum of each larvae using a hand-operated micro-applicator (Burkard Manufacturing Co., Ltd., Hertfordshire, UK with a 50-ll micro-syringe (MS-N50; Ito Corp., Shizuoka, Japan). Each larva was feeding on 10 cm stem pieces of long sugarcane, with 5 larvae/box with three replicates. After topical administration, larval mortality was determined after 24, 48, 72, and 96 h to determine the LD50. Adults were tested for antifeedant effect determined using ten-centimeter-long sections of sugarcane stem divided into equal longitudinal halves. Pieces of long sections of sugarcane stem with area ~32.2 cm^2 were dipped for ten seconds in the previous serial concentration of extract (10 mL) and, then, dried in room temperature air. […] Each package received a replacement pair (male and female). Each treatment was replicated ten times. After 24, 48, 72, and 96 h, feeding observations were assayed.
Finney states that the statistical analysis and probit analysis were conducted using the SPSS 25.0 program (Statistical Package for Social Sciences, Armonk, NY, USA). Chemical components were determined by PCA using SPSS 25.0 program and presented using XLSTAT 2018.1. PCA is a clustering technique that is used to determine the relationships between samples. […] We did a mortality against dosage regression and converted the resultant median dose to an LC50 value (µg/mL). The range of LC50 was calculated with a 95 percent confidence interval using least-squares. We conducted a one-way analysis of variance on the enzyme activity data (ANOVA). The Student–Newman–Keuls (SNK) test was applied with separate means, and differences at p ≤ 0.05 were considered significant.

For the next experiment, the system named is cysteine protease. Nature of the experiment: Cysteine protease activity of midgut from larvae treated 24 h (in vivo). Also on record: species or system Rhynchophorus ferrugineus. Particulars: midgut of fourth instar larvae treated for 24 h. As to the method:
The activity of cysteine proteinase was determined in the fourth midgut instar larval homogenate of R. ferrugineus using the substrate Z-Phe-Arg-MNA [1]. […] The reaction was centrifuged (at 5000 rpm, 6 min), then the absorbance was determined (at 520 nm). The activity of cysteine proteinase was measured using an ELISA quick plate reader at the OD520/60 min/mg of midgut protein. […]
As a control, an assay combination devoid of inhibitors was utilized. The absorbance of the enzymes was determined using an ELISA plate quick reader at various wavelengths. The percentage activity of the control enzyme for each inhibitor was evaluated for each enzyme. Protease activity was assayed in vivo in the R. ferrugineus fourth midgut larval instars, which were treated with 1, 10, 50, 100, 500, 1000, and 5000 mg/L of extracts or compounds, measured as described above. […]

The subject of experiment [1] is elastase. Nature of the experiment: Elastase activity of midgut from larvae treated 24 h (in vivo). The arrangement: species or system Rhynchophorus ferrugineus. Conditions: midgut of fourth instar larvae treated for 24 h. How it is done: (§1) The midguts were homogenized in the assay buffer (100 mM Tris-HCl, pH 8.1) and centrifuged for 30 min at 8000 rpm (Sigma 3K 30, rotors No. 12158). […] […] (100 mg/mL in DMF), BAρNA (100 mg/mL in DMSO), and […] (100 mg/mL in DMF) stock substrates were diluted in the assay buffer to 1 mg/mL, and substrate volume was 50 μL. […] The activity was quantified using an ELISA plate reader at a wavelength of 405 nm. As an empty well, an assay combination containing a denaturation enzyme was utilized instead of an active enzyme. […] To learn more about the proteases found in homogenate preparations of R. ferrugineus fourth midgut larval instars, inhibitors from many different types of mechanisms were used. […] As a control, an assay combination devoid of inhibitors was utilized. The absorbance of the enzymes was determined using an ELISA plate quick reader at various wavelengths. The percentage activity of the control enzyme for each inhibitor was evaluated for each enzyme. […] Larvae were exposed for 24 h to leaf discs treated with extract and compounds.

In experiment [2] the target is elastase. The experiment is described as follows: Serine proteinase microplate assay, SAAPLpNA (in vitro). Type of experiment: biochemical, Rhynchophorus ferrugineus. Particulars: fourth instar larvae midgut homogenate. As to the method: as §1, with “The specific activities of serine proteinase were determined using a rapid quick microplate assay with substrates in reaction mixtures (150 μL) including a serine protease assay buffer, according to […] et al. and Olga et al. with modifications. The midguts” for “The midguts”

In general, LC50 refers to the concentration that kills 50% of the test population.

Structures are written as SMILES. Values after ≈ are worked out from the molar mass of the structure shown.

Compound `O=C(O)C[C@H](C(=O)O)[C@@H](O)C(=O)O` [Isocitric acid] yielded an LC50 in the experiment on R. ferrugineus adults of 1830 µg/mL (≈ 9.5 mM).
Still for that read-out and setting: as for `O=C(/C=C/c1ccc(O)c(O)c1)O/C=C\c1ccc(O)c(O)c1` [Nepetoidin B], the figure is 1320 µg/mL (≈ 4.19 mM).
Take `C[C@@H]1O[C@@H](OC[C@H]2O[C@@H](Oc3c(-c4ccc(O)c(O)c4)oc4cc(O)cc(O)c4c3=O)[C@H](O)[C@@H](O)[C@@H]2O)[C@H](O)[C@H](O)[C@H]1O` [Quercetin-3-O-rutinoside]: the “IC50 against cysteine protease (in vivo)” value with cysteine protease was 746.6 µg/mL. In the experiment on R. ferrugineus adults, this compound yielded a 50% lethal concentration (LC50) of 1210 µg/mL (≈ 1.99 mM).
In the case of `O=C(/C=C/c1ccc(O)c(O)c1)O[C@H](Cc1ccc(O)c(O)c1)C(=O)O` [Rosmarinic acid], the “IC50 against elastase (in vivo)” value with elastase [1] is listed as 119.7 µg/mL. Moreover, on elastase [2], the “IC50 against elastase (in vitro)” value worked out at 96.4 µg/mL. Also, in the experiment with R. ferrugineus adults, the LC50 was found to be 1500 µg/mL (≈ 4.15 mM).
With `COc1ccc(-c2cc(=O)c3c(O)c(OC)c(OC)cc3o2)cc1` [Salvigenin, 5-Hydroxy-6,7,4′-trimethoxyflavone], in the experiment on elastase [1], the “IC50 against elastase (in vivo)” value is reported as 138.2 µg/mL. Also, the “IC50 against elastase (in vitro)” value on elastase [2] is 105.6 µg/mL. This compound also showed an LC50 with R. ferrugineus adults of 1190 µg/mL (≈ 3.62 mM).
